Data reported in patent US10907187B2, “Fungal strains and methods of use” (DANISCO US INC., priority 2015, dated 2021).
Like-named read-outs stand apart in the source and are kept apart here.

Assays:
Assay type in all cases: cell-based, Trichoderma reesei
T. reesei strain RLP37 [1] = assay: Liquid medium fungicide screen, conidiospore germination in YEG; settings: for germination and hyphal growth of conidiospores: 11.25 μM fungicide, overnight at 28° C., 10,000 spores/ml
Method: (§1) For use in liquid medium fungicide screens, conidiospores from T. reesei strains RLP37 and RLP37 NikM743T were harvested and diluted to a concentration of 10,000/ml. Equal numbers of spores were inoculated into liquid YEG medium (5 g/L yeast extract, 22 g/1 glucose. H2O) containing 0, 11.25, 22.5, 45 or 90 μM iprodione or fludioxonil and allowed to germinate overnight at 28° C. […] Furthermore, sensitivity of RLP37 and resistance of RLP37 NikM743T persisted when inoculation culture was scaled up to […].

[2] = tested on: T. reesei strain RLP37 NikM743T; assay: as above; settings: all concentrations tested (11.25, 22.5, 45 or 90 μM), overnight at 28° C.
Method: as §1

T. reesei strain RLP37 [3] = assay: Agar (solid) medium fungicide screen, colony growth on Vogel's minimal medium with glucose; settings: agar plates, 3 days at 32° C.
Method: (§2) For use in agar (solid) medium fungicide screens or selections, conidiospores from T. reesei strains RLP37 and RLP37 Nik^M743T were harvested and diluted to a concentration such that a known number of spores were plated per 10 cm plate containing nutrient agar Vogel's minimal medium with glucose (Vogel, Microbial Genet. Bull. 13:42-43 (1956); Vogel, Am. Nat. 98:435-446 (1964)). Equal numbers of spores for each strain were spread onto the surface of nutrient agar plates containing 0, 11.25, 22.5, 45 or 90 μM iprodione and allowed to grow for 3 days at 32° C. […] This mixed population of spores was spread onto Vogel's minimal medium agar containing 45 μM iprodione and allowed to grow for 3 days at 32° C. Colonies were counted and evaluated for presence of the nik1^M743T mutation by PCR and sequencing (Sequetech, Mountain View, Calif., USA), using the following primers: […]

[4] = tested on: T. reesei strain RLP37 Nik^M743T; assay: as above; settings: 11.25, 22.5, 45 or 90 μM, agar plates, 3 days at 32° C.
Method: as §2

Structure (SMILES)	germination and hyphal growth of conidiospores (T. reesei strain RLP37 [1]; liquid YEG medium)	germination and growth of conidiospores (T. reesei strain RLP37 [1]; concentrations above 11.25 μM (22.5, 45 or 90 μM), liquid YEG medium, overnight at 28° C.)	germination and hyphal growth of conidiospores [2]	colony growth (T. reesei strain RLP37 [3]; 45 μM and above)	colony growth (T. reesei strain RLP37 [3]; 11.25 and 22.5 μM)	colony growth [4]	germination and growth of conidiospores (T. reesei strain RLP37 [1])
N#Cc1c[nH]cc1-c1cccc2c1OC(F)(F)O2 [fludioxonil]	clear inhibition of hyphal growth	complete inhibition of germination and growth	germinated and produced elongated hyphae				
CC(C)NC(=O)N1CC(=O)N(c2cc(Cl)cc(Cl)c2)C1=O [iprodione]	clear inhibition of hyphal growth		germinated and produced elongated hyphae	failed to grow at all	failed to grow to any larger than the size of the tip of a pin	grew similarly to colonies growing on nutrient agar plates without iprodione	complete inhibition of germination and growth
